From patent US20100216758A1, “Pyridone Compounds” (priority 2005, published 2010)

Biological target: T1, human MCH-1R (Homo sapiens, UniProt Q99705)
T1 construct: expressed in transfected cells; host or cells: CHO-K1 (American Type Culture Collection), vector pEF/myc/cyto (Invitrogen)
Assay: MCH binding inhibition test
Conditions: membrane samples from MCH-1R expressing CHO-K1 cells, 50 pM [125I]MCH, 25° C., one hour, pH 7.4; read-out: IC50 (50% inhibition concentration of test compound to the specific [125I]MCH binding)
Experimental: A human MCH-1R encoding cDNA sequence [FEBS Letters, Vol. 398, 253 (1996); Biochimica et Biophisica Acta, Vol. 1401, 216 (1998)] was cloned to a plasmid vector pEF/myc/cyto (Invitrogen Corporation). The obtained expression vector was transfected to host cells CHO-K1 (American Type Culture Collection) using Lipofectamine Plus Reagent (Life Technology Inc.) to provide MCH-1R expression cells.
Membrane samples prepared from the MCH-1R expression cells were incubated with each test compound and 50 pM of [^125I]MCH (NEN Co.), in an assay buffer (50 mM Tris buffer comprising 10 mM magnesium chloride, 2 mM ethylenediamine tetraacetate, 0.01% bacitracin and 0.2% bovine serum albumin; pH 7.4) at 25° C. for an hour, followed by filtration through a glass filter GF/C (Wattman Co.). After washing the glass filter with 50 mM Tris buffer (pH 7.4) comprising 10 mM magnesium chloride, 2 mM ethylenediamine tetraacetate and 0.04% Tween-20, the radioactive activity on the glass filter was measured. The non-specific binding was measured in the presence of 1 μM human MCH and 50% inhibition concentration (IC50 value) of each test compound to the specific [^125I]MCH binding was determined.

T1 sequence (Q99705 whole entry): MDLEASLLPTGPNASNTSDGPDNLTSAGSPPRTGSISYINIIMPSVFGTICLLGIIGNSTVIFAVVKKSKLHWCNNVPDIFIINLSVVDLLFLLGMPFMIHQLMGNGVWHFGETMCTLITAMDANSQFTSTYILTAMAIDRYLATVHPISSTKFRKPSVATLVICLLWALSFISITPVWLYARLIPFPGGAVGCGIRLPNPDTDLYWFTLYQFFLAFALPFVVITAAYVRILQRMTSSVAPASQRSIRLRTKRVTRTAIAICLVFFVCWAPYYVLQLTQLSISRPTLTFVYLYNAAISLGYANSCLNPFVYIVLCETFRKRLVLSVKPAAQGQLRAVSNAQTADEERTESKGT

Structure (SMILES)	IC50
O=c1cc(OCc2ccc(Cl)cc2)ccn1CCc1ccc(CN2C3CCC2CC3)cc1 [Example 41, 1-{2-[4-(7-Azabicyclo[2.2.1]hept-7-ylmethyl)phenyl]ethyl}-4-[(4-chlorobenzyl)oxy]pyridin-2(1H)-one]	3 nM
O=c1cc(OCc2ccc(Cl)cn2)ccn1CCc1ccc(CN2CCCC2)cc1 [Example 26, 4-[(5-Chloropyridin-2-yl)methoxy]-1-(2-[4-(pyrrolidin-1-ylmethyl)phenyl]ethyl}pyridin-2(1H)-one]	5.8 nM
CCN(CC)Cc1ccc(CCn2ccc(OCc3ccc(Cl)cn3)cc2=O)cc1 [Example 14, 4-[(5-Chloropyridin-2-yl)methoxy]-1-(2-{4-[(diethylamino)methyl]phenyl}ethyl)pyridin-2(1H)-one]	7.3 nM

Results, then the molecule that gave them:

IC50	Structure (SMILES)
2.6 nM	CCCNCc1ccc(CCn2ccc(OCc3ccc(F)cc3)cc2=O)cc1 [Example 72, 4-[(4-Fluorobenzyl)oxy]-1-(2-{4-[(propylamino)methyl]phenyl}ethyl)pyridin-2(1H)-one]
5.9 nM	CCN(CC)Cc1ccc(CCn2ccc(OCc3ccc(F)cc3)cc2=O)cc1 [Example 2, 1-(2-{4-[(Diethylamino)methyl]phenyl}ethyl)-4-[(4-fluorobenzyl)oxy]pyridin-2(1H)one]
